BindingDB's records for doi:10.1021/acs.jmedchem.9b01183 (Univ. Lille, 2020)

Experiment: Inhibition of STAT5b in mouse BaF3/FLT3-ITD cells assessed as reduction in cell proliferation

Q: Which IC50 does the source give for O=C(O)c1nonc1NCn1nnnc1Cc1ccccc1 here?
A: 76 µM

Q: With COC(=O)c1nonc1NCn1cnnn1 as the compound, how does the IC50 read?
A: 25 µM

Q: Which IC50 does the source give for O=C(O)c1nonc1NCn1cnnn1 here?
A: 153 µM
